In PubChem BioAssay (NCI):
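Exposure lasted 48 hours, with cells grown in 96-well plates and compounds tested at five concentrations. GI50 = concentration required for 50% inhibition of growth. TGI is the concentration that stops growth completely.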

Columns and labels:
Experiment in all cases: NCI anticancer screen, dose series, 48 h
PC-3 prostate = test system: PC-3 prostate
NCI/ADR-RES ovarian = test system: NCI/ADR-RES ovarian
K-562 leukemia = test system: K-562 leukemia
KM12 colon = test system: KM12 colon
CCRF-CEM leukemia = test system: CCRF-CEM leukemia
MDA-MB-468 breast = test system: MDA-MB-468 breast
NCI-H23 lung = test system: NCI-H23 lung
786-0 renal = test system: 786-0 renal
SF-295 CNS = test system: SF-295 CNS
OVCAR-3 ovarian = test system: OVCAR-3 ovarian
UACC-62 melanoma = test system: UACC-62 melanoma
SNB-75 CNS = test system: SNB-75 CNS
DU-145 prostate = test system: DU-145 prostate
OVCAR-4 ovarian = test system: OVCAR-4 ovarian
A549 NSCLC = test system: A549 NSCLC
SNB-19 CNS = test system: SNB-19 CNS
NCI-H226 lung = test system: NCI-H226 lung
HCT-15 colon = test system: HCT-15 colon
RPMI-8226 leukemia = test system: RPMI-8226 leukemia
NCI-H522 lung = test system: NCI-H522 lung
HT29 colon = test system: HT29 colon
MALME-3M melanoma = test system: MALME-3M melanoma
TK-10 renal = test system: TK-10 renal
LOX IMVI melanoma = test system: LOX IMVI melanoma
UO-31 renal = test system: UO-31 renal
IGROV1 ovarian = test system: IGROV1 ovarian
M14 melanoma = test system: M14 melanoma
ACHN renal = test system: ACHN renal
MCF7 breast = test system: MCF7 breast

Q: `COc1ccc(C(=O)/C=C/c2ccc(OCc3ccc(F)cc3)c(OC)c2)cc1OC` was tested. Which GI50 (PC-3 prostate) did it give?
A: Its GI50 is 6.1 µM.

Q: And the TGI (PC-3 prostate)?
A: The TGI was over 100 µM.

Q: What about the GI50 (NCI/ADR-RES ovarian) of the same compound?
A: The GI50 was 2.86 µM.

Q: And the TGI (NCI/ADR-RES ovarian)?
A: The TGI was 16.2 µM.

Q: And the GI50 (K-562 leukemia)?
A: Its GI50 is 3.72 µM.

Q: And the TGI (K-562 leukemia)?
A: Its TGI is over 100 µM.

Q: And the GI50 (KM12 colon)?
A: Its GI50 is 4.31 µM.

Q: What about the TGI (KM12 colon) of the same compound?
A: The TGI was over 100 µM.

Q: What about the GI50 (CCRF-CEM leukemia) of the same compound?
A: The GI50 was 3.49 µM.

Q: What about the TGI (CCRF-CEM leukemia) of the same compound?
A: Its TGI is over 100 µM.

Q: What about the GI50 (MDA-MB-468 breast) of the same compound?
A: The GI50 was 2.74 µM.

Q: What about the TGI (MDA-MB-468 breast) of the same compound?
A: Its TGI is over 100 µM.

Q: What about the GI50 (NCI-H23 lung) of the same compound?
A: Its GI50 is 4.44 µM.

Q: What about the TGI (NCI-H23 lung) of the same compound?
A: Its TGI is 79.3 µM.

Q: What about the GI50 (786-0 renal) of the same compound?
A: The GI50 was 30 µM.

Q: What about the TGI (786-0 renal) of the same compound?
A: Its TGI is over 100 µM.

Q: What about the GI50 (SF-295 CNS) of the same compound?
A: The GI50 was 3.99 µM.

Q: And the TGI (SF-295 CNS)?
A: Its TGI is over 100 µM.

Q: And the GI50 (OVCAR-3 ovarian)?
A: Its GI50 is 4.64 µM.

Q: What about the TGI (OVCAR-3 ovarian) of the same compound?
A: The TGI was over 100 µM.

Q: What about the GI50 (UACC-62 melanoma) of the same compound?
A: The GI50 was 4.41 µM.

Q: And the TGI (UACC-62 melanoma)?
A: The TGI was over 100 µM.

Q: And the GI50 (SNB-75 CNS)?
A: The GI50 was 17.3 µM.

Q: What about the TGI (SNB-75 CNS) of the same compound?
A: Its TGI is 99.2 µM.

Q: What about the GI50 (DU-145 prostate) of the same compound?
A: Its GI50 is 5.64 µM.

Q: What about the TGI (DU-145 prostate) of the same compound?
A: Its TGI is over 100 µM.

Q: What about the GI50 (OVCAR-4 ovarian) of the same compound?
A: The GI50 was 3.94 µM.

Q: What about the TGI (OVCAR-4 ovarian) of the same compound?
A: Its TGI is over 100 µM.

Q: What about the GI50 (A549 NSCLC) of the same compound?
A: Its GI50 is 4.81 µM.

Q: What about the TGI (A549 NSCLC) of the same compound?
A: Its TGI is over 100 µM.

Q: And the GI50 (SNB-19 CNS)?
A: The GI50 was 4.11 µM.

Q: What about the TGI (SNB-19 CNS) of the same compound?
A: The TGI was over 100 µM.

Q: What about the GI50 (NCI-H226 lung) of the same compound?
A: Its GI50 is 4.7 µM.

Q: And the TGI (NCI-H226 lung)?
A: The TGI was over 100 µM.

Q: And the GI50 (HCT-15 colon)?
A: Its GI50 is 3.09 µM.

Q: What about the TGI (HCT-15 colon) of the same compound?
A: The TGI was over 100 µM.

Q: And the GI50 (RPMI-8226 leukemia)?
A: The GI50 was 2.7 µM.

Q: And the TGI (RPMI-8226 leukemia)?
A: The TGI was over 100 µM.

Q: And the GI50 (NCI-H522 lung)?
A: Its GI50 is 3.39 µM.

Q: What about the TGI (NCI-H522 lung) of the same compound?
A: Its TGI is 71.6 µM.

Q: And the GI50 (HT29 colon)?
A: Its GI50 is 3.02 µM.

Q: And the TGI (HT29 colon)?
A: The TGI was over 100 µM.

Q: What about the GI50 (MALME-3M melanoma) of the same compound?
A: Its GI50 is 27.5 µM.

Q: What about the TGI (MALME-3M melanoma) of the same compound?
A: The TGI was over 100 µM.

Q: And the GI50 (TK-10 renal)?
A: Its GI50 is 14.3 µM.

Q: And the TGI (TK-10 renal)?
A: Its TGI is over 100 µM.

Q: And the GI50 (LOX IMVI melanoma)?
A: The GI50 was 3.06 µM.

Q: And the TGI (LOX IMVI melanoma)?
A: Its TGI is over 100 µM.

Q: What about the GI50 (UO-31 renal) of the same compound?
A: The GI50 was 3.7 µM.

Q: And the TGI (UO-31 renal)?
A: Its TGI is over 100 µM.

Q: What about the GI50 (IGROV1 ovarian) of the same compound?
A: The GI50 was 3.88 µM.

Q: And the TGI (IGROV1 ovarian)?
A: The TGI was over 100 µM.

Q: What about the GI50 (M14 melanoma) of the same compound?
A: The GI50 was 22.6 µM.

Q: What about the TGI (M14 melanoma) of the same compound?
A: The TGI was over 100 µM.

Q: And the GI50 (ACHN renal)?
A: The GI50 was 6.46 µM.

Q: And the TGI (ACHN renal)?
A: Its TGI is over 100 µM.

Q: And the GI50 (MCF7 breast)?
A: Its GI50 is 3.04 µM.

Q: What about the TGI (MCF7 breast) of the same compound?
A: Its TGI is over 100 µM.
